Experimental data taken from US10899738B2 (THE REGENTS OF THE UNIVERSITY OF MICHIGAN, priority 2016, dated 2021).
pIC50: −log10 of the molar value.

Biological target: menin protein (Homo sapiens (Human), UniProt O00255)
Assay: biochemical
Assay type: binding
Settings: FP competitive binding; menin protein 4 nM, FAM-MM2 probe 2 nM; read-out: Menin Binding Affinity IC50
Procedure: A fluorescence polarization (FP) competitive binding assay was used to determine the binding affinities of representative menin inhibitors. A FAM labeled fluorescent probe was designed and synthesized based on a MLL1 peptide (FAM-MM2). Equilibrium dissociation constant (Kd) value of FAM-MM2 to menin protein was determined from protein saturation experiments by monitoring the total fluorescence polarization of mixtures composed with the fluorescent probe at a fixed concentration and the protein with increasing concentrations up to full saturation. Serial dilutions of the protein were mixed with FAM-MM2 to a final volume of 200 μl in the assay buffer (PBS with 0.02% Bovine γ-Globulin and 4% DMSO. 0.01% Triton X-100 was added right before assays). Final FAM-MM2 concentration was 2 nM. Plates were incubated at room temperature for 30 minutes with gentle shaking to assure equilibrium.
The IC50, see Table 3, and Ki values of representative Compounds of the Disclosure were determined in a competitive binding experiment. Mixtures of 5 μl of the tested compounds in DMSO and 195 μl of preincubated protein/probe complex solution in the assay buffer were added into assay plates which were incubated at room temperature for 30 minutes with gentle shaking. Final concentration of the menin protein was 4 nM, and final probe concentration is 2 nM. […] FP values were measured as described above. IC50 values were determined by nonlinear regression fitting of the competition curves.

menin protein, sequence (O00255 whole entry): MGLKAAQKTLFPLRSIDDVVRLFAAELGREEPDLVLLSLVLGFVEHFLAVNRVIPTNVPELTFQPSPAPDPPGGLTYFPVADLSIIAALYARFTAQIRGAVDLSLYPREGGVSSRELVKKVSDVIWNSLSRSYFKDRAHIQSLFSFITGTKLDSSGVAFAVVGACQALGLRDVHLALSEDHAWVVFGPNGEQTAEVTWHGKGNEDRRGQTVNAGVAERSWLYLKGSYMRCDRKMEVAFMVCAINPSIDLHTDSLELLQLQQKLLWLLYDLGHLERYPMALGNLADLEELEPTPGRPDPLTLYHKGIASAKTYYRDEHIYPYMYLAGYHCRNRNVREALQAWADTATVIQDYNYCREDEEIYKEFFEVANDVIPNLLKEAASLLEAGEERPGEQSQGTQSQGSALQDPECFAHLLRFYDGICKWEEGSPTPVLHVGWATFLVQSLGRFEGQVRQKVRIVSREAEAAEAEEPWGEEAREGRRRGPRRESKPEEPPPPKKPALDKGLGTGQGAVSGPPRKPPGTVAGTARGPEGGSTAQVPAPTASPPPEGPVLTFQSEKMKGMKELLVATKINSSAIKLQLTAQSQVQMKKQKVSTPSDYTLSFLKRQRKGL

| SMILES | pIC50 |
| --- | --- |
| COC(=O)N[C@@H]1CCC[C@H]1C(C#N)(c1ccccc1)C1CCN(CC2CN(c3ccc(S(=O)(=O)c4ccncc4)cc3)C2)CC1 (mixture of isomers) [Cpd. No. 346, methyl (rac-(1R,2S)-2-(cyano(phenyl)(1-((1-(4-(pyridin-4-ylsulfonyl)phenyl)azetidin-3-yl)methyl)piperidin-4-yl)methyl)cyclopentyl)carbamate] | 6.24 |
| COC(=O)N[C@@H]1CCC[C@H]1C(C#N)(c1ccccc1)C1CCN(CC2CN(c3ccc(S(=O)(=O)c4cnn(C)c4)cc3)C2)CC1 (mixture of isomers) [Cpd. No. 350, methyl (rac-(1R,2S)-2-(cyano(1-((1-(4-((1-methyl-1H-pyrazol-4-yl)sulfonyl)phenyl)azetidin-3-yl)methyl)piperidin-4-yl)(phenyl)methyl)cyclopentyl)carbamate] | 5.92 |
| CO[C@@H]1CCC[C@H]1C(C#N)(c1ccccc1)C1CCN(CCCOc2ccc(C#N)cc2)CC1 (mixture of isomers) [compound 175, rac-4-(3-(4-(cyano((1S,2R)-2-methoxycyclopentyl)(phenyl)methyl)piperidin-1-yl)propoxy)benzonitrile] | 5.06 |
| CO[C@H]1CCC[C@H]1C(C#N)(c1ccccc1)C1CCN(CCCOc2ccc(C#N)cc2)CC1 (mixture of isomers) [compound 176, rac-4-(3-(4-(cyano((1S,2S)-2-methoxycyclopentyl)(phenyl)methyl)piperidin-1-yl)propoxy)benzonitrile] | 3.85 |
| CO[C@H]1CCC[C@@H]1C(C#N)(c1ccccc1)C1CCN(CC2CN(c3ccc(S(C)(=O)=O)cc3)C2)CC1 (mixture of isomers) [compound 181, rac-2-((1R,2S)-2-methoxycyclopentyl)-2-(1-((1-(4-(methylsulfonyl)phneyl)azetidin-3-yl)methyl)piperidin-4-yl)-2-phenylacetonitrile] | 4.74 |
| CC(=O)O[C@@H]1CCC[C@H]1C(C#N)(c1ccccc1)C1CCN(CC2CN(c3ccc(S(=O)(=O)c4ccncc4)cc3)C2)CC1 (mixture of isomers) [compound 186, rac-(1R,2S)-2-(cyano(phenyl)(1-((1-(4-(pyridin-4-ylsulfonyl)phenyl)azetidin-3-yl)methyl)piperidin-4-yl)methyl)cyclopentyl acetate] | 6.00 |
| CC(=O)O[C@@H]1CCC[C@H]1C(C#N)(c1ccccc1)C1CCN(CC2CN(c3ccc(S(=O)(=O)C4CC4)cc3)C2)CC1 (mixture of isomers) [compound 188, rac-((1R,2S)-2-(cyano(1-((1-(4-(cyclopropylsulfonyl)phenyl)azetidin-3-yl)methyl)piperidin-4-yl)(phenyl)methyl)cyclopentyl acetate] | 5.77 |
| CCO[C@@H]1CCC[C@H]1C(C#N)(c1ccccc1)C1CCN(CC2CN(c3ccc(S(C)(=O)=O)cc3)C2)CC1 (mixture of isomers) [compound 189, rac-2-((1S,2R)-2-ethoxycyclopentyl)-2-(1-((1-(4-(methylsulfonyl)phenyl)azetidin-3-yl)methyl)piperidin-4-yl)-2-phenylacetonitrile] | 4.69 |
| CCC(=O)O[C@@H]1CCC[C@H]1C(C#N)(c1ccccc1)C1CCN(CC2CN(c3ccc(S(=O)(=O)c4ccncc4)cc3)C2)CC1 (mixture of isomers) [compound 196, rac-(1R,2S)-2-(cyano(phenyl)(1-((1-(4-(pyridin-4-ylsulfonyl)phenyl)azetidin-3-yl)methyl)piperidin-4-yl)methylcyclopentyl propionate] | 6.00 |
| N#CC(c1ccccc1)(C1CCN(CC2CN(c3ccc(S(=O)(=O)c4ccncc4)cc3)C2)CC1)[C@H]1CCC[C@@H]1OC(=O)C1CC1 (mixture of isomers) [compound 197, rac-(1S,2R)-2-(cyano(phenyl)(1-((1-(4-(pyridin-4-ylsulfonyl)phenyl)azetidin-3-yl)methyl)piperidin-4-yl)methyl)cyclopentyl cyclopropanecarboxylate] | 7.74 |
| N#CC(c1ccccc1)(C1CCN(CC2CN(c3ccc(S(=O)(=O)c4ccncc4)cc3)C2)CC1)[C@@H]1CCC[C@H]1OC(=O)C1CC1 (mixture of isomers) [compound 198, rac-(1R,2S)-2-(cyano(phenyl)(1-((1-(4-(pyridin-4-ylsulfonyl)phenyl)azetidin-3-yl)methyl)piperidin-4-yl)methyl)cyclopentyl cyclopropanecarboxylate] | 6.07 |
| CC(=O)O[C@H]1CCC[C@@H]1C1(C2CCN(CC3CN(c4ccc(S(=O)(=O)c5ccnc(C)c5)cc4)C3)CC2)CN(C)Cc2ccccc21 (mixture of isomers) [compound 202, rac-(1R,2S)-2-(2-methyl-4-(1-((1-(4-((2-methylpyridin-4-yl)sulfonyl)phenyl)azetidin-3-yl)methyl)piperidin-4-yl)-1,2,3,4-tetrahydroisoquinolin-4-yl)cyclopentyl acetate] | 6.95 |
| CC(=O)O[C@@H]1CCC[C@H]1C1(C2CCN(CC3CN(c4ccc(S(=O)(=O)C5CC5)cc4)C3)CC2)CN(C)Cc2ccccc21 (mixture of isomers) [compound 204, rac-(1R,2S)-2-(4-(1-((1-(4-(cyclopropylsulfonyl)phenyl)azetidin-3-yl)methyl)piperidin-4-yl)-2-methyl-1,2,3,4-tetrahydroisoquinolin-4-yl)cyclopentyl acetate] | 6.91 |

More lines, in order of rising pIC50, values ahead:

| pIC50 | SMILES |
| --- | --- |
| 3.78 | CC(C)C(=O)O[C@@H]1CCC[C@H]1C(C#N)(c1ccccc1)C1CCN(CC2CN(c3ccc(S(=O)(=O)c4ccncc4)cc3)C2)CC1 (mixture of isomers) [compound 194, rac-(1R,2S)-2-(cyano(phenyl)(1-((1-(4-(pyridin-4-ylsulfonyl)phenyl)azetidin-3-yl)methyl)piperidin-4-yl)methyl)cyclopentyl isobutyrate] |
| 4.63 | CS(=O)(=O)c1ccc(N2CC(CN3CCC(C(C#N)(c4ccccc4)[C@H]4CCC[C@H]4S(C)(=O)=O)CC3)C2)cc1 (mixture of isomers) [compound 182, rac-2-((1R,2R)-2-(methylsulfonyl)cyclopentyl)-2-(1-((1-(4-(methylsulfonyl)phenyl)azetidin-3-yl)methyl)piperidin-4-yl)-2-phenylacetonitrile] |
| 5.01 | CO[C@@H]1CCC[C@H]1C(C#N)(c1ccccc1)C1CCN(CC2CN(c3ccc(S(C)(=O)=O)cc3)C2)CC1 (mixture of isomers) [compound 180, rac-2-((1S,2R)-2-methoxycyclopentyl)-2-(1-((1-(4-(methylsulfonyl)phenyl)azetidin-3-yl)methyl)piperidin-4-yl)-2-phenylacetonitrile] |
| 5.05 | CCO[C@@H]1CCC[C@H]1C(C#N)(c1ccccc1)C1CCN(CC2CN(c3ccc(S(=O)(=O)c4ccncc4)cc3)C2)CC1 (mixture of isomers) [compound 199, rac-2-((1S,2R)-2-ethoxycyclopentyl)-2-phenyl-2-(1-((1-(4-(pyridin-4-ylsulfonyl)phenyl)azetidin-3-yl)methyl)piperidin-4-yl)acetonitrile] |
| 5.19 | CS(=O)(=O)c1ccc(N2CC(CN3CCC(C(C#N)(c4ccccc4)[C@H]4CCC[C@@H]4O)CC3)C2)cc1 (mixture of isomers) [compound 178, rac-2-((1R,2S)-2-hydroxycyclopentyl)-2-(1-((1-(4-(methylsulfonyl)phenyl)azitidin-3-yl)methyl)piperidin-4-yl)-2-phenylacetonitrile] |
| 5.42 | CS(=O)(=O)c1ccc(N2CC(CN3CCC(C(C#N)(c4ccccc4)[C@@H]4CCC[C@H]4O)CC3)C2)cc1 (mixture of isomers) [compound 179, rac-2-((1S,2R)-2-hydroxycyclopentyl)-2-(1-((1-(4-(methylsulfonyl)phenyl)azetidin-3-yl)methyl)piperidin-4-yl)-2-phenylacetonitrile] |
| 5.44 | CO[C@@H]1CCC[C@@H]1C(C#N)(c1ccccc1)C1CCN(CCCOc2ccc(C#N)cc2)CC1 (mixture of isomers) [compound 177, rac-4-(3-(4-(cyano((1R,2R)-2-methoxycyclopentyl)(phenyl)methyl)piperidin-1-yl)propoxy)benzonitrile] |
| 5.59 | CC(=O)O[C@@H]1CCC[C@H]1C(C#N)(c1ccccc1)C1CCN(CC2CN(c3ccc(S(C)(=O)=O)cc3)C2)CC1 (mixture of isomers) [compound 184, rac-(1R,2S)-2-(cyano(1-((1-(4-(methylsulfonyl)phenyl)azetidin-3-yl)methyl)piperidin-4-yl)(phenyl)methyl)cyclopentyl actate] |
| 6.63 | CC(C)C(=O)O[C@H]1CCC[C@@H]1C(C#N)(c1ccccc1)C1CCN(CC2CN(c3ccc(S(=O)(=O)c4ccncc4)cc3)C2)CC1 (mixture of isomers) [compound 193, rac-(1S,2R)-2-(cyano(phenyl)(1-((1-(4-(pyridin-4-ylsulfonyl)phenyl)azetidin-3-yl)methyl)piperidin-4-yl)methyl)cyclopentyl isobutyrate] |
| 7.14 | CC(=O)O[C@H]1CCC[C@@H]1C(C#N)(c1ccccc1)C1CCN(CC2CN(c3ccc(S(C)(=O)=O)cc3)C2)CC1 (mixture of isomers) [compound 183, rac-(1S,2R)-2-(cyano(1-((1-(4-(methylsulfonyl)phenyl)azetidin-3-yl)methyl)piperidin-4-yl)(phenyl)methyl)cyclopentyl acetate] |
| 7.77 | CC(=O)O[C@@H]1CCC[C@H]1C(C#N)(c1ccccc1)C1CCN(CC2CN(c3ccc(S(=O)(=O)c4ccnc(C)c4)cc3)C2)CC1 (mixture of isomers) [compound 200, rac-(1R,2S)-2-(cyano(1-((1-(4-((2-methylpyridin-4-yl)sulfonyl)phenyl)azetidin-3-yl)methyl)piperidin-4-yl)(phenyl)methyl)cyclopentyl acetate] |
